Source: patent US12595266B2, “Pesticidally active heterocyclic derivatives with sulfur containing substituents” (SYNGENTA CROP PROTECTION AG, priority 2020, dated 2026)

Key:
Assay type in all cases: in vivo
[1] = test system: Chilo suppressalis (Striped Rice Stemborer); experiment: Activity against Chilo suppressalis (striped rice stemborer); conditions: 144 h, application rate of 200 ppm, artificial diet, L2 larvae, 6 days after infestation, read-out: control (at least one of mortality, anti-feedant effect, growth inhibition)
Description: Example B2: Activity Against Chilo suppressalis (Striped Rice Stemborer)
24-well microtiter plates with artificial diet were treated with aqueous test solutions prepared from 10′000 ppm DMSO stock solutions by pipetting. After drying, the plates were infested with L2 larvae (6-8 per well). The samples were assessed for mortality, anti-feeding effect, and growth inhibition in comparison to untreated samples 6 days after infestation. Control of Chilo suppressalis by a test sample is given when at least one of the categories mortality, anti-feedant effect, and growth inhibition is higher than the untreated sample.

[2] = test system: Diabrotica balteata (Corn Root Worm); experiment: Activity against Diabrotica balteata (corn root worm); conditions: 96 h, application rate of 200 ppm, maize sprouts sprayed, L2 larvae, 4 days after infestation, read-out: effect in at least one of the two categories (mortality or growth inhibition)
Description: Example B3: Activity Against Diabrotica balteata (Corn Root Worm)
Maize sprouts placed onto an agar layer in 24-well microtiter plates were treated with aqueous test solutions prepared from 10′000 ppm DMSO stock solutions by spraying. After drying, the plates were infested with L2 larvae (6 to 10 per well). The samples were assessed for mortality and growth inhibition in comparison to untreated samples 4 days after infestation.

[3] = test system: Euschistus heros (Neotropical Brown Stink Bug); experiment: Activity against Euschistus heros (neotropical brown stink bug); conditions: 120 h, application rate of 200 ppm, soybean leaves sprayed, N2 nymphs, 5 days after infestation, read-out: effect in at least one of the two categories (mortality or growth inhibition)
Description: Example B4: Activity Against Euschistus heros (Neotropical Brown Stink Bug)
Soybean leaves on agar in 24-well microtiter plates were sprayed with aqueous test solutions prepared from 10′000 ppm DMSO stock solutions. After drying the leaves were infested with N2 nymphs. The samples were assessed for mortality and growth inhibition in comparison to untreated samples 5 days after infestation.

[4] = test system: Myzus persicae (Green Peach Aphid); experiment: Activity against Myzus persicae (green peach aphid), feeding/contact activity; conditions: foliar, 144 h, application rate of 200 ppm, sunflower leaf discs sprayed, aphid population of mixed ages, 6 days after infestation
Description: Example B6: Activity Against Myzus persicae (Green Peach Aphid) Feeding/Contact Activity
Sunflower leaf discs were placed onto agar in a 24-well microtiter plate and sprayed with aqueous test solutions prepared from 10′000 ppm DMSO stock solutions. After drying, the leaf discs were infested with an aphid population of mixed ages. The samples were assessed for mortality 6 days after infestation.

[5] = test system: Plutella xylostella (Diamond Back Moth); experiment: Activity against Plutella xylostella (diamond back moth); conditions: 192 h, application rate of 200 ppm, artificial diet, Plutella eggs, 8 days after infestation, read-out: effect in at least one of the two categories (mortality or growth inhibition)
Description: Example B7: Activity Against Plutella xylostella (Diamond Back Moth)
24-well microtiter plates with artificial diet were treated with aqueous test solutions prepared from 10′000 ppm DMSO stock solutions by pipetting. After drying, Plutella eggs were pipetted through a plastic stencil onto a gel blotting paper and the plate was closed with it. The samples were assessed for mortality and growth inhibition in comparison to untreated samples 8 days after infestation.

[6] = test system: Myzus persicae (Green Peach Aphid); experiment: Activity against Myzus persicae (green peach aphid), systemic activity; conditions: 144 h, test rate of 24 ppm, roots of infested pea seedlings in test solution (systemic), 6 days
Description: Example B9: Activity Against Myzus persicae (Green Peach Aphid) Systemic Activity
Roots of pea seedlings infested with an aphid population of mixed ages were placed directly into aqueous test solutions prepared from 10′000 DMSO stock solutions. The samples were assessed for mortality 6 days after placing seedlings into test solutions.

[7] = test system: Spodoptera littoralis (Egyptian Cotton Leaf Worm); experiment: Activity against Spodoptera littoralis (Egyptian cotton leaf worm); conditions: foliar, 72 h, application rate of 200 ppm, cotton leaf discs sprayed, L1 larvae, 3 days after infestation, read-out: control (at least one of mortality, anti-feedant effect, growth inhibition)
Description: Example B8: Activity Against Spodoptera littoralis (Egyptian Cotton Leaf Worm)
Cotton leaf discs were placed onto agar in 24-well microtiter plates and sprayed with aqueous test solutions prepared from 10′000 ppm DMSO stock solutions. After drying the leaf discs were infested with five L1 larvae. The samples were assessed for mortality, anti-feeding effect, and growth inhibition in comparison to untreated samples 3 days after infestation. Control of Spodoptera littoralis by a test sample is given when at least one of the categories mortality, anti-feedant effect, and growth inhibition is higher than the untreated sample.

CCS(=O)(=O)c1c(N2Cc3cc4c(cc3C2=O)OC(F)(F)O4)nc(-c2cnn(CC(F)F)c2)n1C [Compound P4, 6-[2-[1-(2,2-difluoroethyl)pyrazol-4-yl]-5-ethylsulfonyl-1-methyl-imidazol-4-yl]-2,2-difluoro-5H-[1,3]dioxolo[4,5-f]isoindol-7-one]
≥ 80%: percent control (mortality, anti-feedant effect or growth inhibition) at 200 ppm [1] | percent effect (mortality or growth inhibition) at 200 ppm [2] | percent effect (mortality or growth inhibition) at 200 ppm [3] | mortality at 200 ppm [4] | percent effect (mortality or growth inhibition) at 200 ppm [5] | mortality at 24 ppm [6]

CCS(=O)(=O)c1c(N2Cc3cc4c(cc3C2=O)OC(F)(F)O4)nc(-c2cnn(CC3(C#N)CC3)c2)n1C [Compound P5, 1-[[4-[4-(2,2-difluoro-7-oxo-5H-[1,3]dioxolo[4,5-f]isoindol-6-yl)-5-ethylsulfonyl-1-methyl-imidazol-2-yl]pyrazol-1-yl]methyl]cyclopropanecarbonitrile]
≥ 80%: mortality at 200 ppm [4] | percent effect (mortality or growth inhibition) at 200 ppm [5] | mortality at 24 ppm [6]

CCS(=O)(=O)c1c(N2Cc3cc4c(cc3C2=O)OC(F)(F)O4)nc(OCC(F)(F)F)n1C [Compound P6, 6-[5-ethylsulfonyl-1-methyl-2-(2,2,2-trifluoroethoxy)imidazol-4-yl]-2,2-difluoro-5H-[1,3]dioxolo[4,5-f]isoindol-7-one]
≥ 80%: percent control (mortality, anti-feedant effect or growth inhibition) at 200 ppm [1] | percent effect (mortality or growth inhibition) at 200 ppm [2] | percent effect (mortality or growth inhibition) at 200 ppm [5] | percent control (mortality, anti-feedant effect or growth inhibition) at 200 ppm [7]

CCS(=O)(=O)c1c(N2Cc3cc4c(cc3C2=O)OC(F)(F)O4)nc(-c2cncnc2)n1C [Compound P7, 6-(5-ethylsulfonyl-1-methyl-2-pyrimidin-5-yl-imidazol-4-yl)-2,2-difluoro-5H-[1,3]dioxolo[4,5-f]isoindol-7-one]
≥ 80%: percent effect (mortality or growth inhibition) at 200 ppm [5] | mortality at 24 ppm [6]

CCS(=O)(=O)c1cc(OCC(F)(F)F)cnc1N1Cc2cc3c(cc2C1=O)OC(F)(F)O3 [Compound P8, 6-[3-ethylsulfonyl-5-(2,2,2-trifluoroethoxy)-2-pyridyl]-2,2-difluoro-5H-[1,3]dioxolo[4,5-f]isoindol-7-one]
≥ 80%: percent control (mortality, anti-feedant effect or growth inhibition) at 200 ppm [1] | percent effect (mortality or growth inhibition) at 200 ppm [2] | percent effect (mortality or growth inhibition) at 200 ppm [5] | percent control (mortality, anti-feedant effect or growth inhibition) at 200 ppm [7]

CCS(=O)(=O)c1ccc(C2CC2)nc1N1Cc2cc3c(cc2C1=O)OC(F)(F)O3 [Compound P10, 6-(6-cyclopropyl-3-ethylsulfonyl-2-pyridyl)-2,2-difluoro-5H-[1,3]dioxolo[4,5-f]isoindol-7-one]
≥ 80%: percent control (mortality, anti-feedant effect or growth inhibition) at 200 ppm [1] | percent effect (mortality or growth inhibition) at 200 ppm [3] | percent effect (mortality or growth inhibition) at 200 ppm [5] | percent control (mortality, anti-feedant effect or growth inhibition) at 200 ppm [7]

CCS(=O)(=O)c1ccc(-n2cncn2)nc1N1Cc2cc3c(cc2C1=O)OC(F)(F)O3 [Compound P11, 6-[3-ethylsulfonyl-6-(1,2,4-triazol-1-yl)-2-pyridyl]-2,2-difluoro-5H-[1,3]dioxolo[4,5-f]isoindol-7-one]
≥ 80%: percent control (mortality, anti-feedant effect or growth inhibition) at 200 ppm [1] | percent effect (mortality or growth inhibition) at 200 ppm [2] | percent effect (mortality or growth inhibition) at 200 ppm [5] | percent control (mortality, anti-feedant effect or growth inhibition) at 200 ppm [7]

CCS(=O)(=O)c1cc(OCC(C)(F)F)cnc1N1Cc2cc3c(cc2C1=O)OC(F)(F)O3 [Compound P12, 6-[5-(2,2-difluoropropoxy)-3-ethylsulfonyl-2-pyridyl]-2,2-difluoro-5H-[1,3]dioxolo[4,5-f]isoindol-7-one]
≥ 80%: percent control (mortality, anti-feedant effect or growth inhibition) at 200 ppm [1] | percent effect (mortality or growth inhibition) at 200 ppm [2] | percent effect (mortality or growth inhibition) at 200 ppm [3] | mortality at 200 ppm [4] | percent effect (mortality or growth inhibition) at 200 ppm [5] | percent control (mortality, anti-feedant effect or growth inhibition) at 200 ppm [7]

CCS(=O)(=O)c1cc(C(F)(F)F)cnc1N1Cc2cc3c(cc2C1=O)OC(F)(F)O3 [Compound P13, 6-[3-ethylsulfonyl-5-(trifluoromethyl)-2-pyridyl]-2,2-difluoro-5H-[1,3]dioxolo[4,5-f]isoindol-7-one]
≥ 80%: percent control (mortality, anti-feedant effect or growth inhibition) at 200 ppm [1] | percent effect (mortality or growth inhibition) at 200 ppm [5] | percent control (mortality, anti-feedant effect or growth inhibition) at 200 ppm [7]

CCS(=O)(=O)c1c(N2Cc3cc4c(cc3C2=O)OC(F)(F)O4)nc(-c2cnn(C3CC3)c2)n1C [Compound P17, 6-[2-(1-cyclopropylpyrazol-4-yl)-5-ethylsulfonyl-1-methyl-imidazol-4-yl]-2,2-difluoro-5H-[1,3]dioxolo[4,5-f]isoindol-7-one]
≥ 80%: percent control (mortality, anti-feedant effect or growth inhibition) at 200 ppm [1] | percent effect (mortality or growth inhibition) at 200 ppm [2] | percent effect (mortality or growth inhibition) at 200 ppm [3] | mortality at 200 ppm [4] | percent effect (mortality or growth inhibition) at 200 ppm [5] | percent control (mortality, anti-feedant effect or growth inhibition) at 200 ppm [7]

CCS(=O)(=O)c1cc(N(C)C(C)=O)cnc1N1Cc2cc3c(cc2C1=O)OC(F)(F)O3 [Compound P18, N-[6-(2,2-difluoro-7-oxo-5H-[1,3]dioxolo[4,5-f]isoindol-6-yl)-5-ethylsulfonyl-3-pyridyl]-N-methyl-acetamide]
≥ 80%: percent effect (mortality or growth inhibition) at 200 ppm [3] | mortality at 200 ppm [4] | percent effect (mortality or growth inhibition) at 200 ppm [5]

CCS(=O)(=O)c1cc(C2CC2)cnc1N1Cc2cc3c(cc2C1=O)OC(F)(F)O3 [Compound P19, 6-(5-cyclopropyl-3-ethylsulfonyl-2-pyridyl)-2,2-difluoro-5H-[1,3]dioxolo[4,5-f]isoindol-7-one]
≥ 80%: percent control (mortality, anti-feedant effect or growth inhibition) at 200 ppm [1] | percent effect (mortality or growth inhibition) at 200 ppm [2] | mortality at 200 ppm [4] | percent effect (mortality or growth inhibition) at 200 ppm [5] | percent control (mortality, anti-feedant effect or growth inhibition) at 200 ppm [7]

CCS(=O)(=O)c1c(N2Cc3cc4c(cc3C2=O)OC(F)(F)O4)nc(-n2ccc(Cl)n2)n1C [Compound P21, 6-[2-(3-chloropyrazol-1-yl)-5-ethylsulfonyl-1-methyl-imidazol-4-yl]-2,2-difluoro-5H-[1,3]dioxolo[4,5-f]isoindol-7-one]
≥ 80%: percent effect (mortality or growth inhibition) at 200 ppm [2] | percent effect (mortality or growth inhibition) at 200 ppm [3] | mortality at 200 ppm [4] | percent effect (mortality or growth inhibition) at 200 ppm [5] | percent control (mortality, anti-feedant effect or growth inhibition) at 200 ppm [7]

CCS(=O)(=O)c1c(N2Cc3cc4c(cc3C2=O)OC(F)(F)O4)nc(-c2cc(C3CC3)no2)n1C [Compound P26, 6-[2-(3-cyclopropylisoxazol-5-yl)-5-ethylsulfonyl-1-methyl-imidazol-4-yl]-2,2-difluoro-5H-[1,3]dioxolo[4,5-f]isoindol-7-one]
≥ 80%: percent control (mortality, anti-feedant effect or growth inhibition) at 200 ppm [1] | percent effect (mortality or growth inhibition) at 200 ppm [2] | mortality at 200 ppm [4] | percent effect (mortality or growth inhibition) at 200 ppm [5] | percent control (mortality, anti-feedant effect or growth inhibition) at 200 ppm [7]
